Assay results from US7510825B2, “Kits and methods for detection of apoptotic cells” (NST NeuroSurvival Technologies Ltd, priority 2000, dated 2009).

Key:
[1] = test system: injured renal tissues (outer medulla); assay: Radiocontrast-induced distal tubular necrosis model, detection by DDC; type: in vivo, rat; conditions: 24 h after radiocontrast insult, DDC i.v. 2 hours
Description: (§1) A. Administration of DDC in-vivo: Injection of 200 μl of DDC intravenously. Following 1-2 hours, animal is sacrificed, and the desired organ is placed in a test tube or on a small plate, suitable for liquid nitrogen freezing. The plate is then covered with an aluminum foil, and transferred to liquid nitrogen. Following 5-30 minutes the specimen is being frozen to −80° C. and kept at −80° C. for at least 16 hr. B. Analysis of the Specimen: • a. Whole organ imaging Ex-vivo whole organ fluorescence imaging may be carried out on freshly excised specimen, that can be analyzed under a stereomicroscope (such as Leica MZ FL III, Leica Switzerland). DDC may be visualized using 360cx and >420cm nm filter set. Emitted fluorescence can be imaged using appropriate camera and software, such as a Leica DC 300F Distal camera and images can be processed and analyzed by Leica QWin Lite software. • b. […] Analysis of the tissue sections can be performed using a fluorescence microscope with a UV filter characterized by excitation at 360-370 nm (band pass) and emission at 420 nm (barrier filter) In case that staining of the examined tissue is desired, the following procedures can be applied:
The selectivity of DDC uptake in injured renal tissues was evaluated in this rat model, characterized by selective medullary hypoxic tubular damage. […]

BCL1 bone marrow cells = assay: Detection by DDC of apoptosis in BCL1 bone marrow cells following chemotherapy; type: in vivo, mice
Description: A. Administration of DDC in-vivo: Injection of 200 μl of DDC intravenously. Following 1-2 hours, animal is sacrificed, and the desired organ is placed in a test tube or on a small plate, suitable for liquid nitrogen freezing. The plate is then covered with an aluminum foil, and transferred to liquid nitrogen. Following 5-30 minutes the specimen is being frozen to −80° C. and kept at −80° C. for at least 16 hr. B. Analysis of the Specimen: • a. Whole organ imaging Ex-vivo whole organ fluorescence imaging may be carried out on freshly excised specimen, that can be analyzed under a stereomicroscope (such as Leica MZ FL III, Leica Switzerland). DDC may be visualized using 360cx and >420cm nm filter set. Emitted fluorescence can be imaged using appropriate camera and software, such as a Leica DC 300F Distal camera and images can be processed and analyzed by Leica QWin Lite software. • b. Histological analysis, from the frozen organ or tissue, 4 μm cryosections are prepared on slides. Analysis of the tissue sections can be performed using a fluorescence microscope with a UV filter characterized by excitation at 360-370 nm (band pass) and emission at 420 nm (barrier filter) In case that staining of the examined tissue is desired, the following procedures can be applied: […]

[2] = test system: neurons of the ischemic region; assay: Detection by DDC of permanent ischemia by MCA cauterization; type: in vivo, mice; conditions: DDC i.v. 22 hours from the insult; adjacent slides
Description: A. Administration of DDC in-vivo: Injection of 200 μl of DDC intravenously. Following 1-2 hours, animal is sacrificed, and the desired organ is placed in a test tube or on a small plate, suitable for liquid nitrogen freezing. The plate is then covered with an aluminum foil, and transferred to liquid nitrogen. Following 5-30 minutes the specimen is being frozen to −80° C. and kept at −80° C. for at least 16 hr. B. Analysis of the Specimen: • a. Whole organ imaging Ex-vivo whole organ fluorescence imaging may be carried out on freshly excised specimen, that can be analyzed under a stereomicroscope (such as Leica MZ FL III, Leica Switzerland). DDC may be visualized using 360cx and >420cm nm filter set. Emitted fluorescence can be imaged using appropriate camera and software, such as a Leica DC 300F Distal camera and images can be processed and analyzed by Leica QWin Lite software. • b. Histological analysis, from the frozen organ or tissue, 4 μm cryosections are prepared on slides. Analysis of the tissue sections can be performed using a fluorescence microscope with a UV filter characterized by excitation at 360-370 nm (band pass) and emission at 420 nm (barrier filter) In case that staining of the examined tissue is desired, the following procedures can be applied:
A permanent ischemia by MCA cauterization was induced in Balb/c mice (Harlan laboratories). […]

[3] = test system: Jurkat cells (T-cell leukemia); assay: Binding of DDC and PI to Jurkat cells treated with CD95, confocal microscopy; type: cell-based, human; conditions: CD95 for 180 minutes; confocal microscope
Description: For microscopic analysis the concentration of cells should be within 1-2×10^7/ml. […] If fixation is needed, it should be performed after DDC staining. • 1. Adjusting the cells to 1-2×10^7/ml in buffer. • 2. Transferring 96 μl from the cell suspension to an eppendorf and staining the cells by adding 4 μl from the DDC solution. Incubating for 10-40 minutes at RT protected from light. • 3. A double labeling could be conducted with PI, if desired. In such a case, 1 μl is added from the PI solution. • 4, Placing the cell suspension on a glass slide. Covering the cells with a glass coverslip. Alternatively, for analyzing adherent cells, cells may grow directly on coverslip. Staining the cells by incubation with DDC (4 μl of DDC/96 μl buffer reaction) or 10-40 minutes and PI (1 μl). […] Observing the cells under fluorescent or confocal microscope equipped with the appropriate UV filter (excitation at 360-370 nm, band pass, and emission at 420 nm, barrier filter. Using a Triple filter (Hoechst/FITC/Texas Red) allows concomitant observation of both DDC and PI. Quantitative Assay for DDC Accumulation using Fluorescene Spectroscopy
Jurkat cells (T-cell leukemia) were treated with CD95 for 180 minutes and incubated with DDC followed by incubation with Propidium Iodide (PI) as detailed in DDC protocols IIIC. The cells were analyzed under fluorescent confocal microscope using a UV filter. […]

[4] = test system: epithelial cells of the small intestine; assay: Detection by DDC of apoptosis in small intestine epithelial cells following chemotherapy; type: in vivo, mice; conditions: 48 hr following Cyclophosphamide and Taxol chemotherapy
Description: as §1, with “DDC may be visualized using 360cx and >420cm nm filter set.” left out
Chemotherapy treatment is not selective to tumor cells, but can also affect other organs/tissue within the body as a side effect. […] Such side effects may be detected by DDC in the small intestine, in which the epithelial cells are affected by the chemotherapy. […]

[5] = test system: cardiomyocytes of the ischemic heart; assay: Detection by DDC of ischemic damage in the heart following ischemia-reperfusion; type: in vivo, mice; conditions: ischemia 40 minutes, reperfusion 90 minutes; DDC at onset of ischemia
Description: Ischemia/Reperfusion was induced in male Swiss mice by ligation and subsequent release of a suture around the left anterior descending coronary artery. Ischemia was for 40 minutes followed by reperfusion of 90 minutes. DDC was injected to the Jugular vein at the onset of ischemia. Uptake of DDC was followed at real time in the beating heart using a Laica stereomycroscope. Pictures were taken at the end point of the reperfusion (90 minutes) and collected by Hamamatsu CCD camera. For inhibition by caspase inhibitors, animals were injected with a pan-Caspase inhibitor in two doses of 10 mg/kg given at the time of reperfusion. […] Figures (C) and (D) Cryosections prepared from the heart that was collected at the end point of the experiments DDC fluorescence can be viewed in single apoptotic cardiomyocites. This example support the role of DDC in detecting ischemic cells in the level of a single apoptotic cell.

CN(C)c1cccc2c(S(=O)(=O)NC(CSSCC(NS(=O)(=O)c3cccc4c(N(C)C)cccc34)C(=O)O)C(=O)O)cccc12 (stereo not shown) [DDC]
DDC distribution pattern versus morphological findings in the contralateral kidney [1]: closely followed the characteristic striped pattern | fluorescent labeling of bone marrow cells (BCL1 bone marrow cells; 24 hr following Cyclophosphamide 300 mg/kg and Taxol 20 mg/kg): a significant number of apoptotic/necrotic cells are labeled | fluorescent labeling of bone marrow cells (BCL1 bone marrow cells; non-treated group): no fluorescent labeling | correlation of DDC staining of single neurons with H&E staining [2]: high correlation with H&E staining | cellular staining pattern in apoptotic cells [3]: accumulated within the cytoplasm of early and late apoptotic cells | uptake of DDC into single epithelial cells [4]: increased uptake | uptake of DDC in cardiomyocytes [5]: identified in individual cadiomyocites
